Source: patent US11638712B2, “Bis(acetamidophenyl) guanidinophenylethylphosphonates for use in the prevention and/or treatment of PAR-related diseases” (Universiteit Antwerpen, priority 2016, dated 2023)

What was measured:
HNE = target: T1, HNE (Homo sapiens, UniProt P08246); experiment: in vitro serine protease inhibition profile: HNE; type: biochemical
T1 sequence (P08246 30-267): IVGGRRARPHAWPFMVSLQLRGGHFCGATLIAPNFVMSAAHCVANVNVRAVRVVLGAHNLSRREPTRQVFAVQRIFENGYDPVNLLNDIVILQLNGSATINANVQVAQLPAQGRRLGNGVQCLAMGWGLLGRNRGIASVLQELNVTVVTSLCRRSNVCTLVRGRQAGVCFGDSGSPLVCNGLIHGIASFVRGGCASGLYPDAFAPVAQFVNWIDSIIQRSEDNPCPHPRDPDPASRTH

uPA = uPA (Homo sapiens, UniProt P00749); experiment: in vitro serine protease inhibition profile: uPA; type: biochemical
KLK4 = KLK4 (Homo sapiens, UniProt Q9Y5K2); experiment: in vitro serine protease inhibition profile: KLK4; type: biochemical
KLK2 = KLK2 (Homo sapiens, UniProt P20151); experiment: in vitro serine protease inhibition profile: KLK2; type: biochemical
tPA = tPA (Homo sapiens, UniProt P00750); experiment: in vitro serine protease inhibition profile: tPA; type: biochemical
matriptase = target: T2, matriptase (Homo sapiens, UniProt Q9Y5Y6); experiment: in vitro serine protease inhibition profile: matriptase; type: biochemical
T2 sequence (Q9Y5Y6 1-855): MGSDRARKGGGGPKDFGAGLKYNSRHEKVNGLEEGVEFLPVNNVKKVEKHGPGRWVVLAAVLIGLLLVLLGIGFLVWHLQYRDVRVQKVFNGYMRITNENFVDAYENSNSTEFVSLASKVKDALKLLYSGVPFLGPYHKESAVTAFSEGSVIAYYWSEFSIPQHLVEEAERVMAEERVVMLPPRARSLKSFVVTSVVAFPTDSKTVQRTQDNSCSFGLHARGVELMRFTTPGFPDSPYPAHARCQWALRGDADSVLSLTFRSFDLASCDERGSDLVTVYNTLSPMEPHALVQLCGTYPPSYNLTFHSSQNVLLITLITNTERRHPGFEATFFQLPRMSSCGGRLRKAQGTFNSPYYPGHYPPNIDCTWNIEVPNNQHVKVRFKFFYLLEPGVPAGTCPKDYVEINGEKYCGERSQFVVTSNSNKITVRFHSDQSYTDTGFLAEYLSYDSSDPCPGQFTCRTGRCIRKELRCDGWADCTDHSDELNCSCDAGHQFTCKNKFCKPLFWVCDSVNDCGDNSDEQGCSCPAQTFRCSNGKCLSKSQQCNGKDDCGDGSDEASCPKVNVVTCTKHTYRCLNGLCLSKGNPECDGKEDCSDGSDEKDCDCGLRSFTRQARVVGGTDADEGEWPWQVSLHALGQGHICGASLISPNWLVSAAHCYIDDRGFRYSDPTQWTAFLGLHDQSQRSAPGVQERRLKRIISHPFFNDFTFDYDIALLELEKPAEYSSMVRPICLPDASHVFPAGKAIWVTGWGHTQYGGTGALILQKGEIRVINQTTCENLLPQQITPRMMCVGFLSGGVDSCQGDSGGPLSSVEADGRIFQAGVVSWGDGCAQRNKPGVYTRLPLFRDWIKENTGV

cathepsinG = target: T3, cathepsinG (Homo sapiens, UniProt P08311); experiment: in vitro serine protease inhibition profile: cathepsinG; type: biochemical
T3 sequence (P08311 21-244): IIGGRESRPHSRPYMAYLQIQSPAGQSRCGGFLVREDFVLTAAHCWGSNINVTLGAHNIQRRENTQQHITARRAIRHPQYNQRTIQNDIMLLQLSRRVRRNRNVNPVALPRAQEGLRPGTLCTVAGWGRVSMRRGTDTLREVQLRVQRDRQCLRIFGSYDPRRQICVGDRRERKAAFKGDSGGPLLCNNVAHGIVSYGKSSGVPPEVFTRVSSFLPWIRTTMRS

KLK1 = KLK1 (Homo sapiens, UniProt P06870); experiment: in vitro serine protease inhibition profile: KLK1; type: biochemical
ocular tissue damage = experiment: rat dry eye model, ocular surface damage by fluorescein staining; type: in vivo; conditions: dry eye rats
Procedure: Female Wistar rats (200-300 g, Janvier, Roubaix, France) were kept under standard pathogen-free conditions. Husbandry conditions: room temperature 20-25° C., humidity 50-60% and a day-night cycle of 12 h light/12 h dark. Food and water were available ad libitum. All in vivo manipulations were approved by the Animal Ethical Committee of the University of Antwerp (2013-67) and are in accordance to the ARRIVE guidelines for the use of animals in ophthalmic and vision research.
To remove the exorbital lacrimal gland, animals were anesthetized with an intraperitoneal injection of 25 mg/kg ketamine (Anesketin®, Eurovet, Bladel, Netherlands) and 2.5 mg/kg xylazine (Rompun®, Bayer, Leverkusen, Germany). Routine manipulations (tear collection, fluorescein staining) were performed after induction with 5% isoflurane (Halocarbon®, New Jersey, USA), followed by a maintenance dosage of 1.5%.
To remove the gland, a small incision was made beneath the right ear. The lacrimal glands of the left eye were kept intact, leaving each animal with its own individual control and eliminating the need for extra control groups. Progression of dry eye was monitored for 24 days and tear volume measurements and fluorescein staining were performed once a week. Tears were collected twice a week.
Sodium-fluorescein (1%, Sigma-Aldrich, Seelze, Germany) in phosphate buffered saline (PBS, Gibco® by LifeTechnologies Europe, Gent, Belgium) was administered topically to the surface of the eye. To avoid false positives, eyes were rinsed after one minute with PBS and excess fluorescein was removed by placing filter paper in the lateral cantus of the eye. The eye was photographed with a microscopic lens (Photo adapter 1.0 MC 80 DX-Axiovert 25 CA, Carl Zeiss AB, Gottingen, Germany) in a darkened room under cobalt blue light. Using the Oxford fluorescein grading scale, scores from 0 to 5 were given to each eye, depending on ocular staining intensity. Semi-quantitative scoring was done in a blind manner by three independent observers. Evaluation of ocular surface damage was performed every week.
Tear fluid was obtained twice a week. Tear volume and tissue damage was evaluated once a week. Animals were treated with Restasis® (2×/day), UAMC50, UAMC1162, UAMC1169/vehicle (2×/day) for 3 consecutive weeks. Compounds 1, 2 and 4 were formulated as follows: […]

FXIIa = target: T4, FXIIa (Homo sapiens, UniProt P00748); experiment: in vitro serine protease inhibition profile: FXIIa; type: biochemical
T4 construct: panel of serine proteases: uPA, tPA, thrombin, plasmin, FXIIa

[1] = 5 mM formulation, 2x/day, FIG. 4

KLK1, sequence (P06870 25-262, species assumed): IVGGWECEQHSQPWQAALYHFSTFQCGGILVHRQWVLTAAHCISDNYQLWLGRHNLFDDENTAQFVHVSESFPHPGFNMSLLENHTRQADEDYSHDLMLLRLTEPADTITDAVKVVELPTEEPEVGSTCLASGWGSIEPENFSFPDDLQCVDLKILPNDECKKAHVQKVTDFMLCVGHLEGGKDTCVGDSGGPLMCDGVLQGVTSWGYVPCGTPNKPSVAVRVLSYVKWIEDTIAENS
KLK4, sequence (Q9Y5K2 31-254, species assumed): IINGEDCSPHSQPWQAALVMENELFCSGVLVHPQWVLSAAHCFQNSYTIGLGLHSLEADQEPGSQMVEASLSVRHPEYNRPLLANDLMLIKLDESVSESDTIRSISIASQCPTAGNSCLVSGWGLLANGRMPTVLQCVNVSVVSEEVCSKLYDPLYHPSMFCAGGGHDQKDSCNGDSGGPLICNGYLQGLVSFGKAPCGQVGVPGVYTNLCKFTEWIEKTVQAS
T4 sequence (P00748 373-615 limits assumed, other chains not shown): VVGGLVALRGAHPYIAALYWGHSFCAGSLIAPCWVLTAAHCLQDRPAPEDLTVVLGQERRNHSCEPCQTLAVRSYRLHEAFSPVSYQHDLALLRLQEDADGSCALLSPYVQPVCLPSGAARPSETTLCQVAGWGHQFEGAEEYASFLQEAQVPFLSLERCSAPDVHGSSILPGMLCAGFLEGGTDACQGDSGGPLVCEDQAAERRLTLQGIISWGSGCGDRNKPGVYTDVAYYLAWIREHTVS
KLK2, sequence (P20151 25-261, species assumed): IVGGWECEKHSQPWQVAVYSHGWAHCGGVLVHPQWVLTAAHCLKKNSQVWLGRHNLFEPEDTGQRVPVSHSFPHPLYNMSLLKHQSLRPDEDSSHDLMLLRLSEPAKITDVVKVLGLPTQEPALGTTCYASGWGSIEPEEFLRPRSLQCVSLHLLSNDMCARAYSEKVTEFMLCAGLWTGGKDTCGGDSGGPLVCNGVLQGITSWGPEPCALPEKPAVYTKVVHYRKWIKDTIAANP
tPA, sequence (P00750 36-562, species assumed): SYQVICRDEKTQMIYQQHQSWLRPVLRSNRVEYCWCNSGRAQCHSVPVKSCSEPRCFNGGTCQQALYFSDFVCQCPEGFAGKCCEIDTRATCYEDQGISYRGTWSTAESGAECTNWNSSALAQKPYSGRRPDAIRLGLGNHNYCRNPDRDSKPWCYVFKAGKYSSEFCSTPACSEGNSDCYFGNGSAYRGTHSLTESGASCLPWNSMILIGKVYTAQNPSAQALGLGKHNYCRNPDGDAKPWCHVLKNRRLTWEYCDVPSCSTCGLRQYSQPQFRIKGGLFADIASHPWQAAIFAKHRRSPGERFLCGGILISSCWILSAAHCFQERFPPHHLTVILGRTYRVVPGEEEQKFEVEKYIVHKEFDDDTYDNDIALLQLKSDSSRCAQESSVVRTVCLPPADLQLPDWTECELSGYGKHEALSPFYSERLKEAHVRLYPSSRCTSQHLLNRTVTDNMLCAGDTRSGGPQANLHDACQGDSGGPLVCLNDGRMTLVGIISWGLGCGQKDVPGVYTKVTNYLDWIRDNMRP

| SMILES | IC50 (HNE) [nM] | IC50 (uPA) [nM] | IC50 (KLK4) [nM] | IC50 (KLK2) [nM] | IC50 (tPA) [nM] | IC50 (matriptase) [nM] | IC50 (cathepsinG) [nM] | IC50 (KLK1) [nM] | effect on ocular tissue damage (ocular tissue damage; [1]) | tissue damage scores (ocular tissue damage; follow-up experiments, 5 mM and 500 μM, vs untreated, vehicle, Restasis, FIG. 5) | effect on ocular tissue damage (ocular tissue damage; lower dose (500 μM), day 21) | IC50 (FXIIa) [nM] |
| --- | --- | --- | --- | --- | --- | --- | --- | --- | --- | --- | --- | --- |
| CC(=O)Nc1ccc(OP(=O)(Oc2ccc(NC(C)=O)cc2)C(Cc2ccc(NC(=N)N)cc2)NC(=O)OCc2ccccc2)cc1 (stereo not shown) [Compound 4] | > 2500 | 2 | 2 | 115 | > 2500 | 3 | 120 | > 2500 | superior effect on ocular tissue damage | lower tissue damage scores | failed to provide an effect on day 21 | 1610 |
| COC(=O)NC(Cc1ccc(NC(=N)N)cc1)P(=O)(Oc1ccccc1)Oc1ccccc1 (stereo not shown) [Compound 1] | > 2500 | 4 | 9 | > 2500 | > 2500 | 82 | 329 | > 2500 | no effect |  |  | > 2500 |
